Test results from paper PMC11249953, “c-KIT inhibitors reduce pathology and improve behavior in the Tg(SwDI) model of Alzheimer’s disease” (Life Science Alliance, 2024).
Values joined by “and” are separate entries in the source; they are usually repeats but may differ in a detail not shown here. Equal entries are not always repeated. Where two headings read alike, the source gives them in different places.

Key:
[1] = system: TgAPP mice; experiment: Elevated plus maze, TgAPP mice; assay type: in vivo, mouse; details: 45 mg/kg IP, 6 wk, vs DMSO
Description: The elevated plus maze was performed using a standard set up, with two enclosed arms and two open arms. Mice were placed at the intersection of the open and closed arms and allowed to freely explore for 5 min, two times. Time spent in the open and closed arms and number of entries into the open and closed arms were recorded.

[2] = Solubility in DMSO; assay type: physicochemical
[3] = target: T1, p-ABL1 (Homo sapiens, UniProt P00519); experiment: KINOMEscan competition binding, p-ABL1; details: 10 µM compound; for remaining binding at 10 µM: lower = stronger binding, read-out: p-ABL1 %Ctrl @ 10000nM (POC)
T1 construct: DNA label for qPCR read-out (T7 phage fusion or DNA tag); purchased Eurofins DiscoverX Corporation; host or cells: T7 phage in E. coli (BL21-derived) or HEK-293
T1 sequence (P00519 whole entry, the tested form may be a part): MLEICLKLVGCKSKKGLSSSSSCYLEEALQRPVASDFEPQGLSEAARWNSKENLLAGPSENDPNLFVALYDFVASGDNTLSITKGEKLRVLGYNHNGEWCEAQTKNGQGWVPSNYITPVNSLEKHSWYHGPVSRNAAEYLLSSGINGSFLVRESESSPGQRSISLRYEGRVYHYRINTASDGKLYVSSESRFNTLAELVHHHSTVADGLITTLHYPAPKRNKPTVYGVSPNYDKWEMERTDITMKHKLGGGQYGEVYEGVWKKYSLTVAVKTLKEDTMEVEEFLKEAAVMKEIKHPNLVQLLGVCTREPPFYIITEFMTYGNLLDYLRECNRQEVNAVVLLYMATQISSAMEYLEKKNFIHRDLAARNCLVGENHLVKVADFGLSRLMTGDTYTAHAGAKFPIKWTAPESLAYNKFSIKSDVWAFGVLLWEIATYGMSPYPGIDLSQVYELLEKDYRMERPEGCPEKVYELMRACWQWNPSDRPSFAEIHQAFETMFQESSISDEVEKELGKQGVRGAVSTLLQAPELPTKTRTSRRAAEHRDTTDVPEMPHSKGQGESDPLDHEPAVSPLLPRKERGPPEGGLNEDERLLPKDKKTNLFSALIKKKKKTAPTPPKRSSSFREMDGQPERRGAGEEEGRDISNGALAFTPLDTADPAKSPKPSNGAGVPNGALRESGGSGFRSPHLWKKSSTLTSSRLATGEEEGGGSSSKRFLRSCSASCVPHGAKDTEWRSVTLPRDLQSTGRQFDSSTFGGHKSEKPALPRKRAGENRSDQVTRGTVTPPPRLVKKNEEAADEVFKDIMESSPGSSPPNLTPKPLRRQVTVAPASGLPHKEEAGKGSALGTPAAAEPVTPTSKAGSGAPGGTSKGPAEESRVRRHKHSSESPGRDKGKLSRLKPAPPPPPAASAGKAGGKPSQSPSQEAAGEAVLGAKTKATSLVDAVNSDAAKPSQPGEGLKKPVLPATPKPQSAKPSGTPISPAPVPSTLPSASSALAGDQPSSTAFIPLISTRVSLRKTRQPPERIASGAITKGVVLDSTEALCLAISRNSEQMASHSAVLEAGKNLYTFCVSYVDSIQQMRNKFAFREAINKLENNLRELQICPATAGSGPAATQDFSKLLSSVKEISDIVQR
Description: The KINOMEscan screening platform (Eurofins DiscoverX Corporation) was performed using active site-directed competition binding assay to quantitatively measure interactions between BK40143 and BK40197 and more than 450 human kinases and disease relevant mutant variants. […] Screening “hits” are identified by measuring the amount of kinase captured in test (BK40143 and BK40197) versus control samples by using a quantitative and ultra-sensitive qRT-PCR method that detects the associated DNA label. BK40143 and BK40197 were screened at 10 µM concentration, and results for primary screen binding interactions were reported as “% Ctrl” (POC), where lower numbers indicate stronger hits and calculated as follows: [test compound signal−positive control signal/negative control signal−positive control signal]×100
negative control = DMSO (100% Ctrl)
positive control = control compound (0% Ctrl)
Based on screening data from of profiled compounds, a proportional relationship between primary screening results and corresponding compound/target affinities can be described as binding constants (Kd values) for the indicated ranges of POC values with tighter binding (higher affinity) interactions associated with lower POC values and weaker binding (lower affinity) associated with higher POC values. Briefly, kinase-tagged T7 phage strains were grown in parallel in 24-well blocks in an E. coli host derived from the BL21 strain. E. coli were grown to log-phase and infected with T7 phage from a frozen stock (multiplicity of infection = 0.4) and incubated with shaking at 32°C until lysis (90–150 min). The lysates were centrifuged (6,000g) and filtered (0.2 μm) to remove cell debris. The remaining kinases were produced in HEK-293 cells and subsequently tagged with DNA for qRT-PCR detection. Streptavidin-coated magnetic beads were treated with biotinylated small molecule ligands for 30 min at RT to generate affinity resins for kinase assays. The liganded beads were blocked with excess biotin and washed with blocking buffer (1% BSA, 0.05% Tween 20, 1 mM DTT; SeaBlock [Pierce]) to remove unbound ligand and to reduce non-specific phage binding. Binding reactions were assembled by combining kinases, liganded affinity beads, and test compounds in 1x binding buffer (20% 0.17x PBS, 0.05% Tween 20, 6 mM DTT; SeaBlock). Test compounds were prepared as 100x stocks in 100% DMSO and directly diluted into the assay. All reactions were performed in polypropylene 384-well plates in a final volume of 0.02 ml. The assay plates were incubated at RT with shaking for 1 h and the affinity beads were washed with wash buffer (1x PBS, 0.05% Tween 20). […] The kinase concentration in the eluates was measured by qRT-PCR.

[4] = Pharmacokinetic analysis of BK40197 (brain and serum, LC-MS/MS); assay type: in vivo, C57BL/6 mice; details: for Kp / Tmax / AUC / Cmax: both sexes, C57BL/6, mouse; for Kp: brain/serum, intraperitoneal, read-out: brain to serum ratio
Description: The PK profile of BK40197 was investigated after single IP doses of 20 and 45 mg/kg BK40197 to male and female 5–6 mo old C57BL/6 mice compared with DMSO. A solution at 5 ng/ml isotope labelled reference compounds d8-BK40197 was prepared. The solvent used for internal standard (ISTD) dilution is (200 ml/50 ml) acetonitrile/ethyl acetate (ACN/EtOAc). Brain tissue was homogenized in ice water bath and was prepared using weight accurately on analytical balance with 4 decimals. A volume water (MilliQ) was added by adjustable 100–1,000 μl to a concentration at 100 mg brain tissue/ml water. Brain homogenate (25 μl) and plasma sample (25 μl) that was thawed to RT and gently mixed were pipetted to eppendorf tube with lid and 75 μl ISTD added, mixed on vortex and centrifuged for 5 min at […]. A volume of 25 μl milli-Q water and 75 μl brain or plasma samples were added into a 200 μl PE vial and mixed on vortex and 10 μl and injected on LC-MS/MS. All animal work was approved by GUACUC.

[5] = system: mice; experiment: Rotarod (source data sheets only, mouse line not given); assay type: in vivo; details: for Rotarod trial 1 / Rotarod trial 2: Day 1; for Rotarod trial 1 / Rotarod trial 2 / Rotarod trial 3 / Rotarod trial 4 / Rotarod trial 5 / Rotarod trial 6 / Rotarod D1 AVG / Rotarod D2 AVG / Rotarod D3 AVG / Rotarod Total AVG: individual mice, listed as 143; for Rotarod trial 3 / Rotarod trial 4: Day 2; for Rotarod trial 5 / Rotarod trial 6: Day 3
[6] = system: A53T mice; experiment: Novel object recognition, A53T mice; assay type: in vivo, mouse; details: 5 mg/kg
Description: Novel object recognition was carried out using a 50 × 50 cm arena with clear walls covered by brown construction paper. Mice were habituated to the room for 30 min each day, before being allowed to freely explore the arena for 5 min two times, for 3 d. On the 4th d, two identical objects were placed in the arena in opposite adjacent corners, 10 cm from the corner of the arena. Mice were placed along the wall opposite from the objects and allowed to freely explore for 10 min. Approach behavior (extending nose toward the object) toward both objects was recorded manually using handheld stop watches and compared with ensure there was no preference for either neutral object. For the probe trial, one object was removed and replaced with a novel object, and mice were again allowed to freely explore for 10 min, with approach time towards the novel and familiar objects recorded. Trials in which the mice explored for less than 1 s were excluded. Discrimination index was calculated by dividing time spent exploring the novel object by total time exploring both objects and was compared for treated versus control animals.

[7] = ref Fowler et al, 2020; cited from earlier work

## Cc1cccc(-c2cc3nccc(N4CCOCC4)c3s2)c1 [BK40197]
[1]
  elevated plus maze: time in the open arms: spent significantly greater time in the open arms of the elevated plus maze
[2]
  solubility in DMSO: insolubility
[3]
  inhibition at 10 µM: 63%
  remaining binding at 10 µM: 37%
[4]; 20 mg/kg IP
  Kp: 0.251
[4]; 45 mg/kg IP
  Kp: 0.201
[4]; brain, 20 mg/kg single IP, read-out: Brain Tmax
  Tmax: 2 h
[4]; brain, 45 mg/kg single IP, read-out: Brain Tmax
  Tmax: 2 h
[4]; serum, 20 mg/kg single IP
  AUC: 0.928 µg·h/mL
  Cmax: 543 ± 82.3 ng/g
[4]; serum, 20 mg/kg single IP, read-out: Serum Tmax
  Tmax: 1 h
[4]; serum, 45 mg/kg single IP
  AUC: 1.94 µg·h/mL
  Cmax: 1100 ± 165 ng/g
[4]; serum, 45 mg/kg single IP, read-out: Serum Tmax
  Tmax: 1 h
[4]; single IP dose, C57BL/6 mice
  brain penetrance: brain penetrant

## Cc1cccc(-c2cc3nccc(Nc4ccccc4)c3s2)c1 [BK40143]
[5]; 2.5mg/kg
  Rotarod D1 AVG, group mean: 20.1429 s
  Rotarod D2 AVG, group mean: 81.5714 s
  Rotarod D3 AVG, group mean: 111.786 s
  Rotarod Total AVG, group mean: 71.1667 s
  Rotarod trial 1: 2 s and 8 s and 4 s and 23 s and 9 s and 22 s
  Rotarod trial 2: 5 s and 11 s and 17 s and 22 s and 130 s and 10 s
  Rotarod trial 3: 13 s and 135 s and 4 s and 46 s and 129 s and 117 s
  Rotarod trial 4: 29 s and 169 s and 6 s and 101 s and 155 s and 230 s and 4 s
  Rotarod trial 5: 15 s and 204 s and 111 s and 60 s and 154 s and 195 s and 10 s
  Rotarod trial 6: 60 s and 172 s and 53 s and 88 s and 157 s and 272 s and 14 s
  Rotarod D1 AVG: 3.5 s and 9.5 s and 10.5 s and 12 s and 76.5 s and 13 s and 16 s
  Rotarod D2 AVG: 21 s and 152 s and 5 s and 73.5 s and 142 s and 117 s and 60.5 s
  Rotarod D3 AVG: 37.5 s and 188 s and 82 s and 74 s and 155.5 s and 233.5 s and 12 s
  Rotarod Total AVG: 20.6667 s and 116.5 s and 32.5 s and 53.1667 s and 124.667 s and 121.167 s and 29.5 s
[5]; 5.0mg/kg
  Rotarod D1 AVG, group mean: 27.2 s
  Rotarod D3 AVG, group mean: 90.7 s
  Rotarod trial 1: 54 s and 21 s and 19 s and 2 s and 14 s and 5 s and 29 s and 3 s and 1 s
  Rotarod trial 2: 96 s and 41 s and 147 s and 28 s and 9 s and 38 s and 8 s and 10 s and 16 s and 1 s
  Rotarod trial 3: 47 s and 74 s and 152 s and 42 s and 51 s and 45 s and 18 s and 6 s and 5 s and 3 s
  Rotarod trial 4: 46 s and 47 s and 178 s and 87 s and 35 s and 44 s and 66 s and 4 s and 32 s and 5 s
  Rotarod trial 5: 80 s and 109 s and 179 s and 107 s and 92 s and 172 s and 35 s and 61 s and 62 s and 2 s
  Rotarod trial 6: 110 s and 99 s and 139 s and 103 s and 133 s and 151 s and 84 s and 20 s and 69 s and 7 s
  Rotarod D1 AVG: 75 s and 31 s and 83 s and 15 s and 11.5 s and 20 s and 6.5 s and 19.5 s and 9.5 s and 1 s
  Rotarod D2 AVG: 46.5 s and 60.5 s and 165 s and 64.5 s and 43 s and 44.5 s and 42 s and 5 s and 18.5 s and 4 s
  Rotarod D3 AVG: 95 s and 104 s and 159 s and 105 s and 112.5 s and 161.5 s and 59.5 s and 40.5 s and 65.5 s and 4.5 s
  Rotarod Total AVG: 72.1667 s and 65.1667 s and 135.667 s and 61.5 s and 55.6667 s and 75.3333 s and 36 s and 21.6667 s and 31.1667 s and 3.167 s
[6]
  novel object recognition: significant improvements on novel object recognition
[7]
  brain penetrance: brain penetrant
[3]
  inhibition at 10 µM: 97.5%
  remaining binding at 10 µM: 2.5%
